Results published in the supplement of paper PMC10307832.

Experiments:
Assay in all cases: relative viability (nuclei count vs DMSO), 5 days (fraction); higher = more cells survive
BEN = details: first compound 0.5 µM
In short: (§1)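 After 5 days of treatment, lung cancer cells in 1536-well plates were fixed and stained in a single step (final 0.05% Triton X-100, 1% formaldehyde, 1 ug/ml Hoechst) and their nuclei counted on 4× images. Treatment had been applied by pin tool the day after seeding as one drug alone or as a fixed anchor-drug dose with five library-drug doses (not always all listed) in √10 steps. Relative viability is the nuclei count of treated wells divided by that of vehicle wells, and values are medians of duplicate plates.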

EMC-BAC-2 = system: EMC-BAC-2
In short: as §1

NCI-H23 = system: NCI-H23
In short: as §1

NCI-H441 = system: NCI-H441
In short: as §1

NCI-H1395 = system: NCI-H1395
In short: as §1

NCI-H650 = system: NCI-H650
In short: as §1

NCI-H727 = system: NCI-H727
In short: as §1

NCI-H3122 = system: NCI-H3122
In short: as §1

NCI-H838 = system: NCI-H838
In short: as §1

NCI-H2347 = system: NCI-H2347
In short: as §1

NCI-H596 = system: NCI-H596
In short: as §1

NCI-H522 = system: NCI-H522
In short: as §1

Compound: COc1cc2nccc(Oc3ccc(NC(=O)Nc4cc(C)on4)c(Cl)c3)c2cc1OC [Tivozanib] + CC(=O)Nc1cccc(-n2c(=O)n(C3CC3)c(=O)c3c(Nc4ccc(I)cc4F)n(C)c(=O)c(C)c32)c1 [Trametinib] (partner 0.02 µM)
- relative viability (BEN): 1
- relative viability (EMC-BAC-2; first compound 0.005 µM): 0.886
- relative viability (EMC-BAC-2; first compound 0.01581 µM): 0.844
- relative viability (EMC-BAC-2; first compound 0.05 µM): 0.905
- relative viability (EMC-BAC-2; first compound 0.1581 µM): 0.827
- relative viability (EMC-BAC-2; first compound 0.5 µM): 0.952
- relative viability (NCI-H23; first compound 0.005 µM): 0.363
- relative viability (NCI-H23; first compound 0.01581 µM): 0.364
- relative viability (NCI-H23; first compound 0.05 µM): 0.383
- relative viability (NCI-H23; first compound 0.5 µM): 0.373
- relative viability (NCI-H441; first compound 0.005 µM): 0.405
- relative viability (NCI-H441; first compound 0.01581 µM): 0.489
- relative viability (NCI-H441; first compound 0.05 µM): 0.551
- relative viability (NCI-H441; first compound 0.1581 µM): 0.367
- relative viability (NCI-H441; first compound 0.5 µM): 0.433
- relative viability (NCI-H1395; first compound 0.005 µM): 0.992
- relative viability (NCI-H1395; first compound 0.01581 µM): 0.961
- relative viability (NCI-H1395; first compound 0.05 µM): 1.17
- relative viability (NCI-H1395; first compound 0.1581 µM): 0.952
- relative viability (NCI-H1395; first compound 0.5 µM): 0.938
- relative viability (NCI-H650; first compound 0.005 µM): 0.942
- relative viability (NCI-H650; first compound 0.01581 µM): 1.05
- relative viability (NCI-H650; first compound 0.05 µM): 1.05
- relative viability (NCI-H650; first compound 0.1581 µM): 0.97
- relative viability (NCI-H650; first compound 0.5 µM): 0.909
- relative viability (NCI-H727; first compound 0.005 µM): 0.385
- relative viability (NCI-H727; first compound 0.01581 µM): 0.419
- relative viability (NCI-H727; first compound 0.05 µM): 0.366
- relative viability (NCI-H727; first compound 0.1581 µM): 0.38
- relative viability (NCI-H727; first compound 0.5 µM): 0.398
- relative viability (NCI-H3122; first compound 0.005 µM): 0.197
- relative viability (NCI-H3122; first compound 0.01581 µM): 0.213
- relative viability (NCI-H3122; first compound 0.05 µM): 0.229
- relative viability (NCI-H3122; first compound 0.1581 µM): 0.235
- relative viability (NCI-H3122; first compound 0.5 µM): 0.321
- relative viability (NCI-H838; first compound 0.005 µM): 0.514
- relative viability (NCI-H838; first compound 0.01581 µM): 0.555
- relative viability (NCI-H838; first compound 0.05 µM): 0.552
- relative viability (NCI-H838; first compound 0.1581 µM): 0.34
- relative viability (NCI-H838; first compound 0.5 µM): 0.504
- relative viability (NCI-H2347; first compound 0.005 µM): 0.311
- relative viability (NCI-H2347; first compound 0.01581 µM): 0.27
- relative viability (NCI-H2347; first compound 0.05 µM): 0.294
- relative viability (NCI-H2347; first compound 0.1581 µM): 0.317
- relative viability (NCI-H2347; first compound 0.5 µM): 0.284
- relative viability (NCI-H596; first compound 0.005 µM): 0.653
- relative viability (NCI-H596; first compound 0.01581 µM): 0.834
- relative viability (NCI-H596; first compound 0.05 µM): 0.725
- relative viability (NCI-H596; first compound 0.5 µM): 0.931
- relative viability (NCI-H522; first compound 0.005 µM): 0.877
- relative viability (NCI-H522; first compound 0.01581 µM): 0.732
- relative viability (NCI-H522; first compound 0.05 µM): 0.705
- relative viability (NCI-H522; first compound 0.1581 µM): 0.684
- relative viability (NCI-H522; first compound 0.5 µM): 0.804
